Patent EP1105515B1, “ALPHA 2,8/2,9 POLYSIALYLTRANSFERASE” (THE SCRIPPS RESEARCH INSTITUTE, priority 1998, dated 2000)

System: neuS gene product of E.coli K92 expressed in BL21(DE3)
Assay: Sialyltransferase assay: substrate specificity for acceptor substrates (transfer of 14C-NeuAc from CMP[14C]NeuAc)
Assay type: biochemical
Conditions: for Total sialic acid transferred / cpm obtained (per 60 ul reaction): 1 (M acceptor, 9 nmol CMP[14C]NeuAc (8000 cpm/nmol) as donor, 37 °C, 1 hr, 20 (g of 40K Sup; for Total sialic acid transferred: per 60 ul reaction; for cpm obtained (per 60 ul reaction): product spot on DEAE-cellulose TLC counted; for suitability as acceptor substrate (in words): cell-free fractions (15 K Sup, 40 K Sup, pellet), CMP[14C]NeuAc as donor
Description: The assay was carried out essentially as described by Vimr et al (Steenbergen, S. M. et al. (1992) J. Bacteriol. 174 : 1099-1108) with the following modifications : after harvesting, the cells were washed three times with 25 mM Tris HCI (pH 8. 0) and then resuspended in 25 mM Tris HCl (pH 8. 0) containing 5 mM MgCl2, 5 mM dithiothreitol (DTT), and 1 (1/mL protease inhibitor cocktail (Sigma). Cells were lysed three times by using a French Press (AMINCO; 1, 500 psi). The cell debris was removed by centrifugation twice at 15, 000 rpm and the supernatant was collected (termed the 15 K Sup). This supernatant was then centrifuged again at 100,000x g (~ 40 K rpm) using a Beckman ultracentrifuge (Model L5-50). Both the supernatant (termed the 40 K Sup) and the pellet were saved. The pellet was resuspended in a buffer containing 25 mM Tris-HCI, 5 mM MgCl2, 5 mM DTT, and 0.1% Triton CF-54. The supernatants and the pellet were stored on ice, and used for assay within 2 h.
Without the addition of acceptor, the endogenous enzyme activity was determined. The exogenous activity was then detected by addition of sialic acid as acceptor and CMP[^14C]NeuAc as donor in a reaction buffer containing 25 mM Tris-HCl (pH 8.0), 5 mM MgCl2, 5 mM DTT, and 0.5% Triton CF-54. Other substrates were also used, including colominic acid. Both the endogenous and exogenous enzyme activity assays measure the transfer of ^14C-labeled NeuAc to the acceptor. Unreacted radiolabeled substrates were seperated by DEAE-cellulose TLC (n-propanol/14M NH4OH/H2O:: 6 : 1: 3) or by Sephadex G-25 column chromatography. Radioactivity remaining at the origin and/or at the top of the TLC plate or the product obtained at the void volume of Sephadex G-25 column, was quantitated by liquid scintillation spectrometry. For analysis using Sephadex G-25 column chromatography, a column (1 cm x 3.5 cm) of Sephadex G-25 (Pharmacia) in water was prepared. The radiolabeled cell-free reaction mixture (60 (1) was loaded and washed with 1.5 ml of water, which was collected and counted. In some experiments, the activity was determined by separating the unused CMP[^14C]NeuAc by Dowex 1X8 (phosphate form) column chromatography (Williams, M. A. et al. (1995) Glycoconj. J. 12: 755 - 761). The initial rates were estimated graphically, and activity was expressed as pmoles of sialic acid transferred per hour.
The reaction mixture (60 (l) contained 1 (M each of the following acceptors and 9 nmol of CMP[^14C]NeuAc (specific activity: 8000 cpm/nmol) as donor substrate. The reactions were carried out at 37 °C for 1 hr using 20 (g of 40K Sup as mentioned in 'Materials and Methods.' The reaction mixture (1 (1) was spotted on a plastic backed DEAE-cellulose TLC plate, and ran in n-propanol:14.5M NH4OH:water :: 6:1:3. After air-drying, the plate was exposed to Kodak's XAR-5 film for overnight at -70° C. The area corresponding to the reaction product was marked, cut and then counted in scintillation fluid.

Compound	Total sialic acid transferred [pmol]	cpm obtained (per 60 ul reaction) [cpm]	suitability as acceptor substrate (in words)	suitability as acceptor substrate (in words) (listed as neuraminic acid)
CC(=O)N[C@H]1[C@H]([C@H](O)[C@H](O)COC(C)=O)OC(O)(C(=O)O)C[C@@H]1O (stereo partly drawn) [9-O-acetyl sialic acid]	110	900	not well accepted	
CC(=O)N[C@H]1[C@H]([C@H](O)[C@H](O)CO)O[C@@](O[C@H](CO)[C@@H](O)[C@@H]2OC(O)(C(=O)O)C[C@H](O)[C@H]2NC(C)=O)(C(=O)O)C[C@@H]1O (stereo partly drawn) [Dimer]	140	1080	poor acceptors	
CC(=O)N[C@H]1[C@H]([C@H](O)[C@H](O)CO)OC(O)(C(=O)O)C[C@@H]1O (stereo partly drawn) [Monomer, sialic acid]	470	3780	good acceptors	best substrate
CC(=O)N[C@H]1[C@H]([C@H](O)[C@H](O)CO)O[C@@](O[C@H](CO)[C@@H](O)[C@@H]2O[C@@](O[C@H](CO)[C@@H](O)[C@@H]3OC(O)(C(=O)O)C[C@H](O)[C@H]3NC(C)=O)(C(=O)O)C[C@H](O)[C@H]2NC(C)=O)(C(=O)O)C[C@@H]1O (stereo partly drawn) [Trimer]	140	1560	poor acceptors	
GT1b	130	1140		
